Reference: ChEMBL document CHEMBL1914398, “Synthesis and evaluation of novel N-fluoropyridyl derivatives of tropane as potential PET imaging agents for the dopamine transporter” (Bioorg Med Chem Lett, 2011)

Key:
[1] = Selectivity ratio of Ki for SERT to Ki for DAT
[2] = Selectivity ratio of Ki for NET to Ki for DAT
[3] = target: Sodium-dependent noradrenaline transporter (Homo sapiens, UniProt P23975); experiment: Displacement of [125I]-INXT from NET transfected in pig LLC-PK1 cells by radioligand competition binding assay; format: cell-based
Sodium-dependent noradrenaline transporter, sequence (P23975 whole entry): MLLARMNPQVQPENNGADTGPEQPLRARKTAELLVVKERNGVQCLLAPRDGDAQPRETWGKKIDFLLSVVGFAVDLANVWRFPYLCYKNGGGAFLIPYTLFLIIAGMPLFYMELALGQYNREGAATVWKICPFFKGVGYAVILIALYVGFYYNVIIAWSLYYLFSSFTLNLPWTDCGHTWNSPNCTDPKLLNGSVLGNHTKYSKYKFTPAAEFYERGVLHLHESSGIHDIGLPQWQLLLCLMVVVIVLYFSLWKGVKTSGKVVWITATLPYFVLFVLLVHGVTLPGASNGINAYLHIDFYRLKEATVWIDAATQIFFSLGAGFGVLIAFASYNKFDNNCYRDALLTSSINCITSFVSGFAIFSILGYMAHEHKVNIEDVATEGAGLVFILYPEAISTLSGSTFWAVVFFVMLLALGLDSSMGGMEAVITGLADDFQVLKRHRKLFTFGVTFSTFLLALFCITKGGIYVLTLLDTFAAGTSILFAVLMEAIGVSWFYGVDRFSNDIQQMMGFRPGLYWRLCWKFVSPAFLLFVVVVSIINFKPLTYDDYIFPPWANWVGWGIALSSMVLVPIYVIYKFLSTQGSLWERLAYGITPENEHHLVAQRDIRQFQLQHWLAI

[4] = target: Sodium-dependent serotonin transporter (Homo sapiens, UniProt P31645); experiment: Displacement of [125I]-IDAM from SERT transfected in pig LLC-PK1 cells by radioligand competition binding assay; format: cell-based
Sodium-dependent serotonin transporter, sequence (P31645 whole entry): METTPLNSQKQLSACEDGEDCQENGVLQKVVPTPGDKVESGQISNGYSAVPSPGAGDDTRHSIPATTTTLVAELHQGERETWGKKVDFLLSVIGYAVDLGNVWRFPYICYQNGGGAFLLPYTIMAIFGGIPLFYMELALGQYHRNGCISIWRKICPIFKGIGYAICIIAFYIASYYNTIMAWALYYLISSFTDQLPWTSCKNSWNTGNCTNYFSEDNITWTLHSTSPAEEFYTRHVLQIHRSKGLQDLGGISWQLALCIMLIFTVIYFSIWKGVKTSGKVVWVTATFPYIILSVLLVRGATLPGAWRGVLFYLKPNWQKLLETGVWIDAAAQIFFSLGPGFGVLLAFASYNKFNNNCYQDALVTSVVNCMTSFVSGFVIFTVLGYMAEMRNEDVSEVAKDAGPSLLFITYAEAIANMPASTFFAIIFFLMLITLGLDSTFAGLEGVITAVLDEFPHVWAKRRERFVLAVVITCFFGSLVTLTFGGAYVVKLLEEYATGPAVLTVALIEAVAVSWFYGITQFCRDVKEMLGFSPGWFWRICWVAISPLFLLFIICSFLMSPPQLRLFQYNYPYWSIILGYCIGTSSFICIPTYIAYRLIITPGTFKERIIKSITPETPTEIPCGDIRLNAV

[5] = target: Sodium-dependent dopamine transporter (Homo sapiens, UniProt Q01959); experiment: Displacement of [125I]-IPT from DAT transfected in pig LLC-PK1 cells by radioligand competition binding assay; format: cell-based
Sodium-dependent dopamine transporter, sequence (Q01959 whole entry): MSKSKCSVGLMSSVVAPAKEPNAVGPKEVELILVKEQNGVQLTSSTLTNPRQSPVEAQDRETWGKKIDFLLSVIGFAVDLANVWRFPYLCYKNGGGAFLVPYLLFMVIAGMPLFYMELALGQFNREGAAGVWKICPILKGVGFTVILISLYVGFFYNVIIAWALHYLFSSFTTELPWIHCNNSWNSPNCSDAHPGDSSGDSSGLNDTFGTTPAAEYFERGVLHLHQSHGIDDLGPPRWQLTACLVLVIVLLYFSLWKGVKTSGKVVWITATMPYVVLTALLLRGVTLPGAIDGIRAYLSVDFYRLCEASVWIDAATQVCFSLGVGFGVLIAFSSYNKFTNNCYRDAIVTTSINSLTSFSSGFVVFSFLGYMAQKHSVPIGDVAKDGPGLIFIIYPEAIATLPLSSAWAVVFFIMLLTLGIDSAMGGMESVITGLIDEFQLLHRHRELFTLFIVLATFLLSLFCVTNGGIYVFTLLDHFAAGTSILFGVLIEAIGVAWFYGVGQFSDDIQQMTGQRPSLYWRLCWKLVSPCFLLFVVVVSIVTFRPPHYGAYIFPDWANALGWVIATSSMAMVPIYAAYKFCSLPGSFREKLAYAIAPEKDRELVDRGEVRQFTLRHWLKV

With CN1C2CCC1[C@@H](C(=O)Nc1cccc(Br)n1)[C@@H](c1ccc(Cl)cc1)C2 (some centres not stated) the Ratio Ki [1] was 37, the Ratio Ki [2] was 44 and the Ki [3] was 3.85 µM. The Ki [4] was 3.21 µM and the Ki [5] was 86.7 nM.

In the case of CN1C2CCC1[C@@H](C(=O)Nc1ccnc(Br)c1)[C@@H](c1ccc(Cl)cc1)C2 (some centres not stated), the Ratio Ki [1] is reported as 125, the Ratio Ki [2] is reported as 147 and the Ki [3] is reported as 12.1 µM. It also gave a Ki [4] of 10.3 µM and a Ki [5] of 82.2 nM.

CN1C2CCC1[C@@H](C(=O)Nc1ccc(Br)nc1)[C@@H](c1ccc(Cl)cc1)C2 (some centres not stated) gave a Ratio Ki [1] of 144, a Ratio Ki [2] of 153 and a Ki [3] of 16.2 µM. The Ki [4] was 15.3 µM and the Ki [5] was 106 nM.

COC(=O)[C@@H]1C2CCC(C[C@@H]1c1ccc(Cl)cc1)N2C (some centres not stated) gave a Ki [5] of 5.1 nM.

COC(=O)[C@@H]1C2CCC(C[C@@H]1c1ccc(Br)cc1)N2C (some centres not stated) showed a Ki [5] of 3.5 nM.

With CN1C2CCC1[C@@H](CNc1cccc(Br)n1)[C@@H](c1ccc(Cl)cc1)C2 (some centres not stated) the Ratio Ki [1] was 1.3, the Ratio Ki [2] was 5.2 and the Ki [3] was 0.0291 µM. The Ki [4] was 0.0074 µM and the Ki [5] was 5.6 nM.
